What was measured:
Details in all cases: human; call rule not given here
Hepatotoxicity [1] = experiment: FDA HLAED, liver enzyme composite activity
Hepatotoxicity [2] = experiment: FDA HLAED, alkaline phosphatase increase
Hepatotoxicity [3] = experiment: FDA HLAED, serum glutamic oxaloacetic transaminase (SGOT) increase
Hepatotoxicity [4] = experiment: FDA HLAED, serum glutamic pyruvic transaminase (SGPT) increase
Hepatotoxicity [5] = experiment: FDA HLAED, lactate dehydrogenase (LDH) increase
Hepatotoxicity [6] = experiment: FDA HLAED, gamma-glutamyl transferase (GGT) increase
Wherever GGT Increase - Index Value is given: reference of the scale not given here.
Wherever LDH Increase - Index Value is given: reference of the scale not given here.

SMILES | Composite Activity - Active (Hepatotoxicity [1]) | Composite Activity - Marginal (Hepatotoxicity [1]) | Composite Activity - Score (Hepatotoxicity [1]) | Alkaline Phosphatase Increase - Activity Score (Hepatotoxicity [2]) | Alkaline Phosphatase Increase - Index Value (Hepatotoxicity [2]) | Alkaline Phosphatase Increase - Number of Reports (Hepatotoxicity [2]) | SGOT Increase - Activity Score (Hepatotoxicity [3]) | SGOT Increase - Index Value (Hepatotoxicity [3]) | SGOT Increase - Number of Reports (Hepatotoxicity [3]) | SGPT Increase - Activity Score (Hepatotoxicity [4]) | SGPT Increase - Index Value (Hepatotoxicity [4]) | SGPT Increase - Number of Reports (Hepatotoxicity [4]) | LDH Increase - Activity Score (Hepatotoxicity [5]) | LDH Increase - Index Value (Hepatotoxicity [5]) | LDH Increase - Number of Reports (Hepatotoxicity [5]) | GGT Increase - Activity Score (Hepatotoxicity [6]) | GGT Increase - Index Value (Hepatotoxicity [6]) | GGT Increase - Number of Reports (Hepatotoxicity [6]) | also measured
Nc1nc2c(ncn2CCC(CO)CO)c(=O)[nH]1 [PENCICLOVIR] | 0 | 0 | Inactive | Inactive | 0 | < 4 | Inactive | 0 | < 4 | Inactive | 0 | < 4 | Inactive | 0 | < 4 | Inactive | 0 | < 4 | –
COc1ccc(C(CN(C)C)C2(O)CCCCC2)cc1 (configuration not stated) [VENLAFAXINE] | 0 | 0 | Inactive | Inactive | 1.3 | >= 4 | Inactive | 2.7 | >= 4 | Inactive | 2.3 | >= 4 | Inactive | 0.7 | >= 4 | Inactive | 0.9 | >= 4 | –
C=C1CC[C@@]2(O)[C@H]3Cc4ccc(O)c5c4[C@@]2(CCN3CC2CC2)[C@H]1O5 | 0 | 0 | Inactive | Inactive | 0 | < 4 | Inactive | 0 | < 4 | Inactive | 0 | < 4 | Inactive | 0 | < 4 | Inactive | 0 | < 4 | –
C=C1c2c(Cl)ccc(O)c2C(=O)C2=C(O)[C@]3(O)C(=O)C(C(N)=O)=C(O)[C@@H](N(C)C)[C@@H]3[C@@H](O)[C@H]12 [MECLOCYCLINE] | 0 | 0 | Inactive | Inactive | 0 | < 4 | Inactive | 0 | < 4 | Inactive | 0 | < 4 | Inactive | 0 | < 4 | Inactive | 0 | < 4 | –
CC(NCCc1ccc(O)cc1)C(O)c1ccc(O)cc1 (configuration not stated) [RITODRINE] | 2 | 0 | Active | Inactive | 1.1 | < 4 | Active | 4.2 | >= 4 | Active | 4.2 | >= 4 | Inactive | 0 | < 4 | Inactive | 0 | < 4 | –
CC(=O)N(CC(O)CN(C(C)=O)c1c(I)c(C(=O)NCC(O)CO)c(I)c(C(=O)NCC(O)CO)c1I)c1c(I)c(C(=O)NCC(O)CO)c(I)c(C(=O)NCC(O)CO)c1I (configuration not stated) [IODIXANOL] | 0 | 0 | Inactive | Inactive | 0 | < 4 | Inactive | 0 | < 4 | Inactive | 0 | < 4 | Inactive | 0 | < 4 | Inactive | 0 | < 4 | –
NCCCNCCSP(=O)(O)O [AMIFOSTINE] | – | – | – | Inactive | 0 | < 4 | Inactive | 0 | < 4 | Inactive | 0 | < 4 | Inactive | 41.5 | < 4 | Inactive | 0 | < 4 | Composite Activity - Active (Hepatotoxicity [1]; Liver): 0; Composite Activity - Marginal (Hepatotoxicity [1]; Liver): 0; Composite Activity - Score (Hepatotoxicity [1]; Liver): Inactive
COc1cc(CC2c3c(cc(OC)c(OC)c3OC)CC[N+]2(C)CCCOC(=O)CCC(=O)OCCC[N+]2(C)CCc3cc(OC)c(OC)c(OC)c3C2Cc2cc(OC)c(OC)c(OC)c2)cc(OC)c1OC.[Cl-].[Cl-] (configuration not stated) [DOXACURIUM CHLORIDE] | 0 | 0 | Inactive | Inactive | 0 | < 4 | Inactive | 0 | < 4 | Inactive | 0 | < 4 | Inactive | 0 | < 4 | Inactive | 0 | < 4 | –
CC(C)(C)NCC(O)COc1cccc2c1CC(O)C(O)C2 (configuration not stated) [NADOLOL] | 0 | 0 | Inactive | Inactive | 0.3 | < 4 | Inactive | 0.7 | >= 4 | Inactive | 0.7 | >= 4 | Inactive | 0 | < 4 | Inactive | 0 | < 4 | –
